In brackets after ≈: the same amount, converted by molar mass. One block for each compound: values may come before it.
What was measured:
[1] = test system: MOLM-13; assay: Antiproliferative activity against human MOLM-13 cells incubated for 72 hrs by Cell Titre-Glo luminescent assay; format: functional, cell-based; settings: MOLM-13, 72 h
[2] = test system: A2780; assay: Antiproliferative activity against human A2780 cells incubated for […] by crystal violet staining based assay; format: functional, cell-based
[3] = target: Cyclin-dependent kinase 4 (Homo sapiens, UniProt P11802); assay: Inhibition of CDK4 (unknown origin) using Ulight-labeled substrate by TR-FRET LANCE method
[4] = target: Cyclin-dependent kinase 6 (Homo sapiens, UniProt Q00534); assay: Inhibition of CDK6 (unknown origin) using Ulight-labeled substrate by TR-FRET LANCE method
[5] = target: T1, Cyclin-dependent kinase 1 (Homo sapiens, UniProt P06493); assay: Inhibition of CDK1 (unknown origin) using Ulight-labeled substrate by TR-FRET LANCE method
[6] = target: T2, Cyclin-dependent kinase 2 (Homo sapiens, UniProt P24941); assay: Inhibition of CDK2 (unknown origin) using Ulight-labeled substrate by TR-FRET LANCE method
[7] = target: T3, Cyclin-dependent kinase 7 (Homo sapiens, UniProt P50613); assay: Inhibition of CDK7 (unknown origin) using Ulight-labeled substrate by TR-FRET LANCE method
[8] = target: Cyclin-dependent kinase 8 (Homo sapiens, UniProt P49336); assay: Inhibition of CDK8 (unknown origin) by TR-FRET assay
[9] = Plasma clearance in Sprague-Dawley rat at 1 mg/kg, iv measured after 24 hrs by reverse phase HPLC analysis; format: ADME, organism-based
[10] = test system: NCI-H929; assay: cells; settings: Homo sapiens, NCI-H929, 24 h
[11] = test system: MV4-11; assay: cells; settings: Homo sapiens, MV4-11, 24 h
[12] = target: T4, CDK9/cyclin T1 (Homo sapiens, UniProt P50750); assay: Inhibition of His-tagged human CDK9/cyclin T1 expressed in insect cells using biotinylated-cdk7tide peptide incubated for 5 hrs by Alpha Screen assay
[13] = target: T4, CDK9/cyclin T1; assay: Displacement of Alexa Fluor 647 ADP Tracer from His-tagged human CDK9/Cyclin T1 expressed in baculovirus expression system incubated for 1 hr by adapta assay
[14] = target: CDK7/Cyclin H/MNAT1 (Homo sapiens, UniProt P50613); assay: Displacement of Alexa Fluor 647 ADP Tracer from human CDK7/CyclinH/MAT1 expressed in baculovirus expression system incubated for 1 hr by adapta assay
[15] = test system: MOLT-4; assay: Antiproliferative activity against human MOLT4 cells incubated for 72 hrs by cell titer glo assay; format: functional, cell-based; settings: MOLT-4, 72 h
[16] = target: T4, CDK9/cyclin T1; assay: Inhibition of human CDK9 (1 to 372 residues)/N-terminal GST-fused His-tagged CyclinT1 (1 to 726 residues) expressed in baculovirus expression system incubated for 0.5 to 1 hr by TR-FRET assay
[17] = target: Cyclin-dependent kinase 2/cyclin E1 (Homo sapiens, UniProt P24941); assay: Inhibition of His-tagged human CDK2/cyclin E1 expressed in insect cells using biotin Ttds-YISPLKSPYKISEG as substrate preincubated for 15 mins followed by ATP and substrate addition and measured after 25 mins by TR-FRET assay
[18] = target: Glycogen synthase kinase-3 beta (Homo sapiens, UniProt P49841); assay: Inhibition of human GSK3beta
[19] = Thermodynamic solubility of the compound at pH 6.5 incubated for 24 hrs by equilibrium shake flask; format: physicochemical; settings: buffer, read-out: Therm_solubility
[20] = target: Glycogen synthase kinase-3 alpha (Homo sapiens, UniProt P49840); assay: Inhibition of human GSK3alpha
[21] = Oral bioavailability in Wistar rats at 0.6 to 1 mg/kg measured up to 24 hrs by LC-MS/MS analysis; format: ADME, organism-based; settings: rat, in vivo, dose 0.6-1 mg/kg
[22] = target: CDK3/Cyclin E (Homo sapiens, UniProt Q00526); assay: Inhibition of C-terminal His6-tagged human CDK3/N-terminal GST-tagged human cyclin E expressed in baculovirus infected Sf21 insect cells
[23] = target: T3, Cyclin-dependent kinase 7; assay: Binding affinity to wild-type human full length CDK7 (M1 to L344 residues) expressed in mammalian expression system by Kinomescan method
[24] = target: T5, Cyclin-dependent kinase 9 (Homo sapiens, UniProt P50750); assay: Binding affinity to wild-type human full length CDK9 (M1 to F372 residues) expressed in bacterial expression system by Kinomescan method
[25] = test system: MOLM-13; assay: Antiproliferative activity against human MOLM-13 cells; format: functional, cell-based
[26] = target: T5, Cyclin-dependent kinase 9
[27] = Solubility of the compound at pH 6.8; format: physicochemical; settings: buffer
[28] = Solubility of the compound at pH 8.7; format: physicochemical; settings: buffer
[29] = Oral bioavailability in mouse; format: ADME, organism-based; settings: in vivo
[30] = test system: MV4-11; assay: Antitumor activity against human MV4-11 cells xenografted in mouse assessed as tumor growth inhibition at 7.5 mg/kg relative to control; format: functional; settings: read-out: TGI
[31] = test system: OPM-2; assay: Growth inhibition of human OPM-2 cells incubated for 24 hrs; format: functional
[32] = target: T1, Cyclin-dependent kinase 1; assay: Inhibition of CDK1 in human MCF7 cells assessed as reduction in PP1alpha phosphorylation at T320 residue incubated for 6 hrs by immunoblot analysis; format: cell-based
[33] = target: T2, Cyclin-dependent kinase 2; assay: Inhibition of CDK2 in human MCF7 cells assessed as reduction in Rb phosphorylation at T821 residue incubated for 6 hrs by immunoblot analysis; format: cell-based
[34] = target: Cyclin-dependent kinase 4/6 (Homo sapiens, UniProt P11802+Q00534); assay: Inhibition of CDK4/6 in human MCF7 cells assessed as reduction in Rb phosphorylation at S807/811 residue incubated for 6 hrs by immunoblot analysis; format: cell-based
[35] = target: T3, Cyclin-dependent kinase 7; assay: Inhibition of CDK7 in human MCF7 cells assessed as RNA polymerase2 phosphorylation at serine 5 residue residue incubated for 6 hrs by immunoblot analysis; format: cell-based
[36] = Half life in rat; format: ADME; settings: in vivo
[37] = Half life in dog; format: ADME, Canis lupus familiaris; settings: in vivo
[38] = Half life in monkey; format: ADME, Macaca mulatta; settings: rhesus monkey, in vivo

SMILES: COc1ccc(F)cc1-c1c(F)cnc2[nH]c(C3=CCN([C@H]4CC[C@H](C(=O)O)CC4)CC3)cc12
IC50 [3]: 0.162 µM | IC50 [4]: 0.101 µM | IC50 [5]: > 0.32 µM | IC50 [6]: > 0.32 µM | IC50 [7]: > 0.32 µM | IC50 [8]: > 0.32 µM | clearance [9]: 0.63 L/h/kg | IC50 [10]: 0.04 µM | IC50 [11]: 0.138 µM

SMILES: COC[C@H](C)N[C@H]1CC[C@H](Nc2cc(-c3cccc(NCC4(C#N)CCOCC4)n3)c(Cl)cn2)CC1
IC50 [13]: < 0.0005 µM | IC50 [14]: > 10 µM | IC50 [15]: 0.009 µM

SMILES: COc1ccc(F)cc1-c1ncnc2[nH]c(C3CCNCC3)cc12
IC50 [16]: 0.013 µM

SMILES: CC(C)(C)c1cnc(CSc2cnc(NC(=O)C3CCNCC3)s2)o1 [BMS-387032]
IC50 [15]: 0.173 µM

SMILES: Cn1ncc(-c2nc(N[C@H]3CC[C@H](N)CC3)ncc2Cl)c1CC1CC1 [BTX-A51]
Kd [23]: 0.0013 µM | Kd [24]: 0.004 µM

SMILES: CN1CC[C@H](c2c(OP(=O)(O)O)cc(O)c3c(=O)cc(-c4ccccc4Cl)oc23)[C@H](O)C1 [TP-1287]
IC50 [26]: 0.084 µM | solubility [27]: 9.5 mg/mL (≈ 19.7 mM) | solubility [28]: 9.3 mg/mL (≈ 19.3 mM) | F [29]: 182.3% | inhibition in vivo at 7.5 mg/kg [30]: 109%

SMILES: CC(=O)N[C@@H]1CCC[C@H](C(=O)Nc2cc(-c3cnn4c3CC(C)(C)C4)c(Cl)cn2)C1 [ZEMIRCICLIB]
GI50 [31]: 0.023 µM | IC50 [32]: 0.37 µM | IC50 [33]: > 10 µM | IC50 [34]: > 10 µM | IC50 [35]: 1.1 µM | half-life [36]: < 1 h | half-life [37]: < 1 h | half-life [38]: < 1 h

Further lines, results first:

IC50 [1]: 0.046 µM | IC50 [2]: 0.038 µM
SMILES: Cc1cc(CS(C)(=O)=O)cc(Nc2ncc(F)c(-c3ccc(F)c4ccoc34)n2)c1

IC50 [12]: < 0.008 µM
SMILES: O=C(Nc1cc(-c2cccc(NCc3cccc(F)c3)n2)c(Cl)cn1)[C@H]1CNCCO1

IC50 [17]: 0.558 µM
SMILES: COc1cc(F)ccc1-c1ncnc(Nc2cccc(CCS(C)(=O)=O)c2)n1

IC50 [18]: 0.087 µM | solubility thermodynamic at 24 h [19]: 0.479 mg/mL (≈ 1.24 mM) | IC50 [20]: 0.045 µM | bioavailability [21]: 54% | IC50 [22]: > 0.89 µM
SMILES: COc1cc(F)ccc1-c1ncnc(Nc2cccc(C[S@](C)(=N)=O)c2)n1 [ATUVECICLIB]

IC50 [25]: 0.029 µM
SMILES: COc1cc(F)ccc1-c1cc(Nc2cc(CS(C)(=N)=O)ccn2)ncc1F (centres undefined) [ENITOCICLIB]

Reference: ChEMBL document CHEMBL4699469, “Recent Developments in the Biology and Medicinal Chemistry of CDK9 Inhibitors: An Update” (J Med Chem, 2020)
